{
  "source": "patent US9393314B2",
  "about": "“Meloxicam eye drops and preparation method and use thereof” (KANGYA OF NINGXIA PHARMACEUTICALS CO., LTD., priority 2013, dated 2016)",
  "system": "rabbit eyes (aqueous humor protein concentration)",
  "assay": "Rabbit eye anterior chamber puncture test",
  "type": "in vivo",
  "method": "Thirty-six rabbits without ocular abnormalities were taken and randomly divided into six groups, with six rabbits in each group. The groups are respectively saline group, medium control group, positive control group of diclofenac sodium, 0.025%, 0.05% and 0.1% meloxicam eye drops groups. Then 0.05 mL drug solution was dropped into the rabbit eyes for experiment. The eyes were forced to be closed for 10 seconds; 45 minutes later, under local anesthesia with 0.2 mL of 1% tetracaine drops, puncturing was performed with 41/2 needle from the edge of the limbus to take 0.2 mL of primary aqueous humor; 90 minutes later, puncturing was performed again to take the secondary aqueous humor. Those two batches of aqueous humor were diluted 2-fold and 50-fold respectively. Then 0.05 mL of distilled water, aqueous humor dilution and protein standard solution were taken, 3 mL Coomassie brilliant blue staining solution was added thereto respectively, after 10 minutes of reaction, their absorbance values at 595 nm were measured, and the protein content was calculated according to the following formula: [formula]",
  "note": "Marks after values point to notes of the source that are not given here.",
  "data": [
    {"compound": "O=C(O)Cc1ccccc1Nc1c(Cl)cccc1Cl", "note": "[Diclofenac sodium]", "values": [
      {"measurement": "Protein concentration in aqueous humor, Primary", "setting": "0.05 ml/eye, puncture 45 minutes after dosing, x ± s, n 6", "result": "0.52 ± 0.19", "unit": "mg/mL"},
      {"measurement": "Protein concentration in aqueous humor, Secondary", "setting": "0.05 ml/eye, second puncture 90 minutes later, x ± s, n 6", "result": "18.05 ± 3.01**^ΔΔ mg/ml"},
      {"measurement": "inhibition of the increase in aqueous humor protein concentration caused by puncture of anterior chamber", "setting": "vs saline and medium control groups", "result": "significantly inhibit"}
    ]}
  ]
}
